# System: human androgen receptor
# Assay: androgenic activity rating (procedures described above; which test underlies the rating is not stated)
# Design: key: −: no androgenic activity found; +: androgenic activity found; ++: high androgenic activity; +++: excellent androgenic activity; prodrug
# Settings: compounds of the invention; rating scheme of Example 18
# Method: Androgenic activity can be measured in various ways. Thus, the potency of androgens can be determined in vitro using the cytoplasmic androgen receptor from human breast tumor cells (MCF-7 cell line); see Bergink, E. W. et al, Comparison of the receptor binding properties of nandrolone and testosterone under in vitro and in vivo conditions, J. Steroid Biochem. 22, 831-836 (1985). It is also possible to use Chinese hamster ovary (CHO) cells transfected with the human androgen receptor (incubation time 16 h, temperature 4° C.) and compared with the affinity of 5α-dihydrotestosterone [according to the procedure described by Bergink, E. W. et al, J. Steroid Biochem. 19, 1563-1570 (1983)]. The transactivative androgen activity of the compounds of the invention can be measured, e.g. in Chinese hamster ovary cells (CHO) transfected with the human androgen receptor (hAR), in combination with a mouse mammary tumor virus (MMTV), and luciferase receptor gene (incubation time 16 h, temperature 37° C.) and compared with the activity of 5α-dihydrotestosterone [according to the procedure described by Schoonen, W. G. E. J. et al, Analyt. Biochem. 261, 222-224 (1998)]. For the in vivo potency determination of androgens the classical Hershberger test can be used. In this test the androgenic (increase in prostate weight) and anabolic activities [increase of the musculus levator ani (MLA)] of a compound are tested in immature castrated rats after daily administration for 7 days; see Hershberger, L. G. et al, Myotrophic activity of 19-Nortestosterone and other steroids determined by modified levator ani muscle method, Proceedings of the society for experimental biology and medicine 83, 175-180 (1953). Additionally, the effect of an androgenic compound on LH suppression can be tested in mature castrated rats according to Kumar, N. et al, The biological activity of 7alpha-methyl-19-nortestosterone is not amplified in male reproductive tract as is that of testosterone, Endocrinology 130, 3677-3683 (1992).
# The compounds according to the invention and four reference compounds were tested for drogenic activity (the procedures for which have been described above) and rated according the following scheme: […]
row,Compound,Res. (androgenic activity)
1,C[C@@H]1CC2=C(CC[C@H](O)C2)[C@H]2CC[C@]3(C)[C@H](CO)C[C@H]4C[C@]43[C@H]12 [Example 15b1],pro
2,"C[C@@H]1CC2=C[C@H](O)CC[C@@H]2[C@H]2CC[C@]3(C)[C@](O)(CO)C[C@H]4C[C@]43[C@@H]21 [Example 15c2, (3α,7α,15β,17β)-3,17-Dihydroxy-7-methyl-14,15-methyleneestr-4-ene-17-methanol]",+
3,"C[C@H](O)[C@@H]1C[C@H]2C[C@]23[C@H]2[C@H](CC[C@]13C)[C@H]1CCC(=O)C=C1C[C@H]2C [Example 11a, (7α,14β,15β,17α,20S)-20-Hydroxy-7-methyl-14,15-methylene-19-norpregn-4-en-3-one]",++
4,"C[C@@H]1CC2=CC(=O)CC[C@@H]2[C@H]2CC[C@]3(C)[C@H](C(C)(C)O)C[C@H]4C[C@]43[C@@H]21 [Example 12, (7α,14β,15β,17α)-20-Hydroxy-7,20-dimethyl-14,15-methylene-19-norpregn-4-en-3-one]",+
5,"CC[C@@H]1CC2=CC(=O)CC[C@@H]2[C@H]2CC[C@]3(C)[C@H](CO)C[C@H]4C[C@]43[C@H]12 [Example 5, (7α,14β,15β,17α)-7-Ethyl-17-(hydroxymethyl)-14,15-methyleneestr-4-en-3-one]",++
6,"C[C@@H]1CC2=CC(=O)CC[C@@H]2[C@H]2CC[C@]3(C)[C@H](CO)C[C@H]4C[C@]43[C@@H]21 [Example 1, (7α,14β,15β,17α)-17-(Hydroxymethyl)-7-methyl-14,15-methyleneestr-4-en-3-one]",+++
7,CC[C@H](O)[C@@H]1C[C@H]2C[C@]23[C@H]2[C@H](CC[C@]13C)[C@H]1CCC(=O)C=C1C[C@H]2C [Example 13],+
8,CC(=O)OC[C@@H]1C[C@H]2C[C@]23[C@H]2[C@H](CC[C@]13C)[C@H]1CCC(=O)C=C1C[C@H]2C [Example 14],++
9,"C[C@H]1[C@H]2C[C@]23[C@H]2[C@H](CC[C@]3(C)[C@@H]1CO)[C@H]1CCC(=O)C=C1C[C@H]2C [Example 7, (7α,14β,15β16β,17α)-17-(Hydroxymethyl)-7,16-dimethyl-14,15-methyleneestra-4-en-3-one]",+
10,"CC[C@]12CC[C@H]3[C@@H]([C@H](C)CC4=CC(=O)CC[C@@H]43)[C@]13C[C@@H]3C[C@H]2CO [Example 6, (7α,14β,15β,17α)-13-Ethyl-17-(hydroxymethyl)-7-methyl-14,15-methylenegon-4-en-3-one]",+++
11,"C[C@@H]1CC2=C[C@@H](O)CC[C@@H]2[C@H]2CC[C@]3(C)[C@](O)(CO)C[C@H]4C[C@]43[C@@H]21 [Example 15c1, (3β,7α,14β,15β,17β)-3,17-Dihydroxy-7-methyl-14,15-methyleneestr-4-ene-17methanol]",+
12,"CC(=O)OC[C@]1(F)C[C@H]2C[C@]23[C@H]2[C@H](CC[C@]13C)[C@H]1CCC(=O)C=C1C[C@H]2C [Example 9a, (7α,14β,15β,17β)-17-[(Acetyloxy)methyl]-17-fluoro-7-methyl-14,15-methyleneestr-4-en-3-one]",++
13,"C[C@@H]1CC2=CC(=O)CC[C@@H]2[C@H]2CC[C@]3(C)[C@H]([C@@H](C)O)C[C@H]4C[C@]43[C@@H]21 [Example 11b, (7α,14β,15β,17α,20R)-20-hydroxy-7-methyl-14,15-methylene-19-norpregn-4-en-3-one]",+
14,"C[C@@H]1CC2=CC(=O)CCC2=C2CC[C@]3(C)[C@H](CO)C[C@H]4C[C@]43[C@@H]21 [Example 3, (7α,14β,15β17α)-17-(Hydroxymethyl)-7-methyl-14,15-methyleneestra-4,9-dienes-3-one]",++
15,"C[C@@H]1CC2=C(CC[C@@H](O)C2)[C@H]2CC[C@]3(C)[C@H](CO)C[C@H]4C[C@]43[C@H]12 [Example 15b2, (3α,7α,14β,15β,17α)-3-Hydroxy-7-methyl-14,15-methyleneestr-5(10)-ene-17-methanol]",Pro
16,"CC1=C2C[C@@H](C)[C@@H]3[C@H](CC[C@]4(C)[C@H](CO)C[C@H]5C[C@@]534)[C@H]2CCC1=O [Example 4, (7α,14β,15β,17α)-17-(Hydroxymethyl)-4,7-dimethyl-14,15-methyleneestr-4-en-3-one]",++
17,"C[C@@H]1CC2=CC(=O)CC[C@@H]2[C@H]2CC[C@]3(C)[C@](F)(CO)C[C@H]4C[C@]43[C@@H]21 [Example 9b, (7α,14β,15β,17β)-17-fluoro-17-(hydroxymethyl)-7-methyl-14,15-methyleneestra-4-en-3-one]",++
18,"CC(=O)OC[C@]1(F)C[C@H]2C[C@]23[C@@H]2[C@H](C)CC4=C(CCC(=O)C4)[C@H]2CC[C@]13C [Example 10, (7α,14β,15β,17β)-17-[(Acetyloxy)methyl]-17-fluoro-7-methyl-14,15-methyleneestr-5(10)-en-3-one]",+
19,"C[C@@H]1CC2=CC(=O)CC[C@@H]2[C@H]2CC[C@]3(C)[C@](O)(CO)C[C@H]4C[C@]43[C@@H]21 [Example 8, (7α,14β,15β,17β)-17-Hydroxy-17-(hydroxymethyl)-7-methyl-14,15-methyleneestr-4-en-3-one]",+
20,"C[C@@H]1CC2=C[C@@H](O)CC[C@@H]2[C@H]2CC[C@]3(C)[C@H](CO)C[C@H]4C[C@]43[C@@H]21 [Example 15a, (3β,7α,14β,15β,17α)-3-Hydroxy-7-methyl-14,15-methyleneestr-4-ene-17-methanol]",+++
21,"C[C@@H]1CC2=C(CCC(=O)C2)[C@H]2CC[C@]3(C)[C@H](CO)C[C@H]4C[C@]43[C@H]12 [Example 2, (7α,14,β15β,17α)-17-(Hydroxymethyl)-7-methyl-14,15-methyleneestr-5(10)-en-3-one]",+

# System: not given
# Assay: not given
# Settings: not given
row,Compound,melting point [°C]
1,"C[C@@H]1CC2=CC(=O)CC[C@@H]2[C@H]2CC[C@]3(C)[C@H](CO)C[C@H]4C[C@]43[C@@H]21 [Example 1, (7α,14β,15β,17α)-17-(Hydroxymethyl)-7-methyl-14,15-methyleneestr-4-en-3-one]",137 to 140
